Results: US10307357B2, “Prebiotic oral care compositions containing an alkyl glycoside” (COLGATE-PALMOLIVE COMPANY, priority 2013, dated 2019)

Columns and labels:
Assay in all cases: Twenty-four hour optical density growth in BHI
Assay type in all cases: cell-based
Details in all cases: over 24 hours, control = 1
[1] = system: Porphyromonas gingivalis
Procedure: (§1) The extent of growth of the tested bacteria in response to selected glycosides (β-methyl-D-galactoside and α-methyl-D-galactoside) was investigated by setting up growth curves in a nutritionally rich medium (brain heart infusion broth (BHI), Oxoid), over 24 hours. Late exponential growth phase liquid cultures were prepared by transferring the respective bacterium from blood agar plates to BHI and overnight incubation at 37° C. in an anaerobic atmosphere for A. viscosus, V. parvula, F. nucleatum, P. gingivalis, P. intermedia, T. forsythia, A. naeslundii, and C. sputigena, and in a 5% CO2 environment for S. salivarius, S. sanguinis, S. mitis, A. actinomycetemcomitans, S. mutans, S. sobrinus and S. gordonii. Overnight cultures were transferred to BHI and adjusted to a concentration of 1×10^7 CFU/ml (colony forming units per ml) by measuring the optical density at 600 nm (OD600) (BioRad SmartSpec 3000). For each strain, 200 μl of the bacterial suspension was added to a 96-well plate containing 20 μl of the respective glycosides. Final concentrations of the glycosides were set to 5, 10, 20 and 25 μmol/ml. […] Plates were incubated as previously described. For each combination of bacterium/glycoside, and for each of their respective controls (i.e. the particular bacterium in the nutritionally rich medium with no glycoside), the optical density was measured at 630 nm (OD630) at 0 h and 24 h (Thermo Scientific Multiskan Ascent). Additionally, the OD630 for combinations of bacterium/glycosides grown in a 5% CO2 environment were also measured every hour between 0 h and 9 h. […] The experiment was carried out on three different days (thus providing 3 biological replicas) and on each day the experiment was carried out in quadruple (thus providing 4 technical replicas) for each combination of bacterium with glycoside and for each control. For each day and for each combination, the average (mean) of the values obtained (as detailed above) for the four technical replicas was calculated to provide a single value for each combination on each day. The values shown in Tables 5 to 6, below, are the average (mean) of the three single values obtained for each combination of bacterium with glycoside (α-Methyl-D-Galactoside=α-MDG; β-Methyl-D-Galactoside=β-MDG).

[2] = system: Streptococcus sobrinus
Procedure: as §1

[3] = system: Actinomyces naeslundii
Procedure: as §1

[4] = system: Actinomyces viscosus
Procedure: as §1

[5] = system: Streptococcus sanguinis
Procedure: as §1

[6] = system: Streptococcus mutans
Procedure: as §1

[7] = system: Veillonella parvula
Procedure: as §1

[8] = system: Prevotella intermedia
Procedure: as §1

[9] = system: Fusobacterium nucleatum
Procedure: as §1

[10] = system: Streptococcus salivarius
Procedure: as §1

[11] = system: Tannerella forsythia
Procedure: as §1

[12] = system: Streptococcus gordonii
Procedure: as §1

[13] = system: Aggregatibacter actinomycetemcomitans
Procedure: as §1

[14] = system: Streptococcus mitis
Procedure: as §1

[15] = system: Capnocytophaga sputigena
Procedure: as §1

CO[C@H]1O[C@H](CO)[C@H](O)[C@H](O)[C@H]1O [α-methyl-D-galactoside]
maximal OD630 divided by control (extent of growth) ([1]; 5 μmol/ml): 0.9298 | maximal OD630 divided by control (extent of growth) ([1]; 10 μmol/ml): 0.9747 | maximal OD630 divided by control (extent of growth) ([1]; 20 μmol/ml): 0.9132 | maximal OD630 divided by control (extent of growth) ([1]; 25 μmol/ml): 0.9353 | maximal OD630 divided by control (extent of growth) ([2]; 5 μmol/ml): 0.9005 | maximal OD630 divided by control (extent of growth) ([2]; 10 μmol/ml): 0.8975 | maximal OD630 divided by control (extent of growth) ([2]; 20 μmol/ml): 0.8858 | maximal OD630 divided by control (extent of growth) ([2]; 25 μmol/ml): 0.9052 | maximal OD630 divided by control (extent of growth) ([3]; 5 μmol/ml): 0.9762 | maximal OD630 divided by control (extent of growth) ([3]; 10 μmol/ml): 0.9994 | maximal OD630 divided by control (extent of growth) ([3]; 20 μmol/ml): 0.9595 | maximal OD630 divided by control (extent of growth) ([3]; 25 μmol/ml): 0.9481 | maximal OD630 divided by control (extent of growth) ([4]; 5 μmol/ml): 0.6181 | maximal OD630 divided by control (extent of growth) ([4]; 10 μmol/ml): 0.5756 | maximal OD630 divided by control (extent of growth) ([4]; 20 μmol/ml): 0.4433 | maximal OD630 divided by control (extent of growth) ([4]; 25 μmol/ml): 0.4453 | maximal OD630 divided by control (extent of growth) ([5]; 5 μmol/ml): 0.9521 | maximal OD630 divided by control (extent of growth) ([5]; 10 μmol/ml): 0.9343 | maximal OD630 divided by control (extent of growth) ([5]; 20 μmol/ml): 0.8872 | maximal OD630 divided by control (extent of growth) ([5]; 25 μmol/ml): 0.9294 | maximal OD630 divided by control (extent of growth) ([6]; 5 μmol/ml): 0.9703 | maximal OD630 divided by control (extent of growth) ([6]; 10 μmol/ml): 0.9003 | maximal OD630 divided by control (extent of growth) ([6]; 20 μmol/ml): 0.4212 | maximal OD630 divided by control (extent of growth) ([6]; 25 μmol/ml): 0.2492 | maximal OD630 divided by control (extent of growth) ([7]; 5 μmol/ml): 0.9160 | maximal OD630 divided by control (extent of growth) ([7]; 10 μmol/ml): 0.9528 | maximal OD630 divided by control (extent of growth) ([7]; 20 μmol/ml): 0.9141 | maximal OD630 divided by control (extent of growth) ([7]; 25 μmol/ml): 0.9326 | maximal OD630 divided by control (extent of growth) ([8]; 5 μmol/ml): 0.9203 | maximal OD630 divided by control (extent of growth) ([8]; 10 μmol/ml): 0.9043 | maximal OD630 divided by control (extent of growth) ([8]; 20 μmol/ml): 0.8637 | maximal OD630 divided by control (extent of growth) ([8]; 25 μmol/ml): 0.8498 | maximal OD630 divided by control (extent of growth) ([9]; 5 μmol/ml): 0.8598 | maximal OD630 divided by control (extent of growth) ([9]; 10 μmol/ml): 0.8398 | maximal OD630 divided by control (extent of growth) ([9]; 20 μmol/ml): 0.7917 | maximal OD630 divided by control (extent of growth) ([9]; 25 μmol/ml): 0.7921 | maximal OD630 divided by control (extent of growth) ([10]; 5 μmol/ml): 0.8965 | maximal OD630 divided by control (extent of growth) ([10]; 10 μmol/ml): 0.8910 | maximal OD630 divided by control (extent of growth) ([10]; 20 μmol/ml): 0.8640 | maximal OD630 divided by control (extent of growth) ([10]; 25 μmol/ml): 0.8725 | maximal OD630 divided by control (extent of growth) ([11]; 5 μmol/ml): 0.9724 | maximal OD630 divided by control (extent of growth) ([11]; 10 μmol/ml): 0.9898 | maximal OD630 divided by control (extent of growth) ([11]; 20 μmol/ml): 0.9846 | maximal OD630 divided by control (extent of growth) ([11]; 25 μmol/ml): 1.0112 | maximal OD630 divided by control (extent of growth) ([12]; 5 μmol/ml): 0.9997 | maximal OD630 divided by control (extent of growth) ([12]; 10 μmol/ml): 0.9966 | maximal OD630 divided by control (extent of growth) ([12]; 20 μmol/ml): 1.0089 | maximal OD630 divided by control (extent of growth) ([12]; 25 μmol/ml): 1.0255 | maximal OD630 divided by control (extent of growth) ([13]; 5 μmol/ml): 0.7382 | maximal OD630 divided by control (extent of growth) ([13]; 10 μmol/ml): 0.7398 | maximal OD630 divided by control (extent of growth) ([13]; 20 μmol/ml): 0.7462 | maximal OD630 divided by control (extent of growth) ([13]; 25 μmol/ml): 0.7395 | maximal OD630 divided by control (extent of growth) ([14]; 5 μmol/ml): 0.9303 | maximal OD630 divided by control (extent of growth) ([14]; 10 μmol/ml): 0.9337 | maximal OD630 divided by control (extent of growth) ([14]; 20 μmol/ml): 0.8843 | maximal OD630 divided by control (extent of growth) ([14]; 25 μmol/ml): 0.8855 | maximal OD630 divided by control (extent of growth) ([15]; 5 μmol/ml): 0.8698 | maximal OD630 divided by control (extent of growth) ([15]; 10 μmol/ml): 0.8897 | maximal OD630 divided by control (extent of growth) ([15]; 20 μmol/ml): 0.8728 | maximal OD630 divided by control (extent of growth) ([15]; 25 μmol/ml): 0.8809
